Each structure is given as a SMILES string.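 48-hour exposure; five concentrations; linearly interpolated endpoints. GI50: concentration for 50% inhibition of growth.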 Calls of active or inactive are those of the source. No stated cut-off is given here; in the data, active = GI50 up to about 1.1 µM and inactive = higher.

Test systems include SK-MEL-2; RXF 393; A498; NCI-H522; A549; HT-29; OVCAR-8; HCT-15; MOLT-4; IGROV-1; SK-OV-3; KM12; SF-295; SN12C; HOP-62; SK-MEL-28; ACHN; SR.
What all share (test): DTP human tumour cell line panel, 48 h

Take `COc1ccc(/C=C/C(=O)c2sc(-c3cccnc3)nc2C)cc1`: the GI50 with SK-MEL-2 was 38.4 µM (inactive); with RXF 393, 26.3 µM (inactive); with A498, > 100 µM (inactive); in the test with NCI-H522 it was 20.5 µM (inactive); with A549, 39.2 µM (inactive); in the test with HT-29, 36.9 µM (inactive). The GI50 is 35.7 µM (inactive) in the test on OVCAR-8; 45.3 µM with HCT-15; 16.7 µM (inactive) in the test on MOLT-4; 60.1 µM (inactive) in the test on IGROV-1; 82.6 µM (inactive) in the test with SK-OV-3; 15.3 µM (inactive) in the test with KM12. The GI50 with SF-295 was 35.8 µM (inactive); in the test on SN12C, 64.6 µM (inactive); with HOP-62, 63.7 µM (inactive); with SK-MEL-28, 94 µM (inactive).
In the case of `COC(=O)C1=Cc2cc(OC)c(OC)c(OC)c2[C@H](c2cc(OC)c(OC)c(OC)c2)C1C(=O)OC` (stereo not given in full), the GI50 with RXF 393, in the test on A498, with NCI-H522, in the test with A549, in the test with HT-29 and in the test on OVCAR-8 was > 100 µM (inactive) each time. Further, the GI50 in the test with HCT-15 was above 100 µM; in the test on MOLT-4, > 100 µM (inactive); with IGROV-1 it was > 100 µM (inactive); in the test on SK-OV-3, > 100 µM (inactive); in the test on KM12, > 100 µM (inactive); in the test on SF-295 it was > 100 µM (inactive). Further, the GI50 with ACHN, in the test on SN12C, with HOP-62 and in the test with SK-MEL-28 was > 100 µM (inactive) in each case.
As to `CC(C)c1ccccc1NC(=O)CCC(=O)NN`, the GI50 was > 100 µM (inactive) in the test with SK-MEL-2; > 100 µM (inactive) with SR; > 100 µM (inactive) in the test with NCI-H522; > 100 µM (inactive) with A549; above 100 µM with HCT-15; > 100 µM (inactive) in the test with MOLT-4. For the same compound, the GI50 in the test on IGROV-1, with SK-OV-3, in the test with KM12, in the test with SF-295, with ACHN and in the test on SN12C was > 100 µM (inactive) throughout. The GI50 with SK-MEL-28 is > 100 µM (inactive).
For the compound `CC(=O)O[C@@H]1CC(C)C2CC2C2=C(C(O)OC2O)[C@@H]1C(C)CCC=C(C)C` (stereo not given in full), the GI50 with SK-MEL-2 is 29.9 µM (inactive); in the test with RXF 393, 17.3 µM (inactive); with A498, 35.7 µM (inactive); in the test with NCI-H522 it was 15.3 µM (inactive); in the test with A549, 22.7 µM (inactive); with HT-29, 19 µM (inactive). The GI50 in the test with OVCAR-8 was 27 µM (inactive); in the test with HCT-15, 22 µM; with MOLT-4, 24.6 µM (inactive); in the test on IGROV-1 it was 25.1 µM (inactive); with ACHN, 31.7 µM (inactive); in the test on SN12C, 18.4 µM (inactive). Also, the GI50 is 26.9 µM (inactive) in the test on HOP-62 and 36.7 µM (inactive) with SK-MEL-28.
Turning to `CCN(CC)C(=O)CCn1ccc(=O)[nH]c1=O`, the GI50 in the test on SK-MEL-2, in the test with RXF 393, with SR, in the test with NCI-H522, in the test with A549 and in the test with HT-29 was > 100 µM (inactive) each time. Besides, the GI50 in the test with OVCAR-8 is > 100 µM (inactive); in the test on HCT-15 it was above 100 µM; in the test with MOLT-4, > 100 µM (inactive); in the test on IGROV-1, > 100 µM (inactive); with KM12, > 100 µM (inactive); in the test on SF-295, > 100 µM (inactive). For the same compound, the GI50 with ACHN, with SN12C, in the test with HOP-62 and with SK-MEL-28 was > 100 µM (inactive) throughout.
`CSc1sc(=S)sc1C(=O)N(C)c1ccccc1`: the GI50 in the test with SK-MEL-2 was > 100 µM (inactive); in the test on RXF 393, 81.5 µM (inactive); with SR, 83 µM (inactive); in the test on NCI-H522, 48.8 µM (inactive); with A549, > 100 µM (inactive); in the test with HT-29, > 100 µM (inactive). Besides, the GI50 with OVCAR-8 was > 100 µM (inactive); in the test on HCT-15, above 100 µM; in the test on MOLT-4 it was 84.5 µM (inactive); in the test on IGROV-1, > 100 µM (inactive); in the test with KM12, 91.8 µM (inactive); in the test on SF-295, > 100 µM (inactive). Moreover, the GI50 in the test with ACHN, in the test with SN12C, in the test with HOP-62 and in the test with SK-MEL-28 was > 100 µM (inactive) in each case.
In the case of `COc1ccc([C@H]2CC3C(=O)N(c4ccc(OC)cc4)C(=O)C3c3[nH]c4ccccc4c32)cc1` (stereo not given in full), the GI50 in the test with SK-MEL-2 is 53 µM (inactive); in the test on A498 it was > 100 µM (inactive); in the test on NCI-H522, 99.5 µM (inactive); in the test with A549, 47.4 µM (inactive); with OVCAR-8 it was 17.1 µM (inactive); in the test with HCT-15, 57.4 µM. Besides, the GI50 with MOLT-4 is 32.9 µM (inactive); in the test on IGROV-1, > 100 µM (inactive); in the test with SK-OV-3, 44.2 µM (inactive); in the test with KM12, 47 µM (inactive); in the test on SF-295 it was 16.7 µM (inactive); with ACHN, > 100 µM (inactive). Moreover, the GI50 in the test on SN12C is 51.9 µM (inactive); with HOP-62, 32.7 µM (inactive); in the test on SK-MEL-28, 83.9 µM (inactive).
Consider `BrC12C3C4C5C(C(C43)C13OCCO3)C52` (stereo not given), for which the GI50 with SK-MEL-2, in the test with RXF 393, with A498, with NCI-H522, in the test with A549 and with HT-29 was > 100 µM (inactive) throughout. Besides, the GI50 in the test with OVCAR-8, in the test with MOLT-4, in the test with IGROV-1, with SK-OV-3, in the test on KM12 and in the test on SF-295 was > 100 µM (inactive) in each case. The GI50 with ACHN, in the test with HOP-62 and with SK-MEL-28 was > 100 µM (inactive) in each case.
For `CC(C)CCC[C@@H](C)C1CCC2[C@@H]3CC=C4C[C@@H](C(=O)NCC[N+](C)(C)CCCS(=O)(=O)[O-])CC[C@]4(C)C3CC[C@@]21C` (stereo not given in full), the GI50 was 18.2 µM (inactive) with SK-MEL-2; 20.9 µM (inactive) with RXF 393; > 10 µM (inactive) in the test on A498; 11.5 µM (inactive) with NCI-H522; 17.3 µM (inactive) in the test on A549; 18 µM (inactive) with HT-29. In addition, the GI50 was 18.8 µM (inactive) in the test on OVCAR-8; 16.3 µM in the test with HCT-15; 18.2 µM (inactive) with MOLT-4; 17.3 µM (inactive) with IGROV-1; 16.8 µM (inactive) in the test on SK-OV-3; 17.4 µM (inactive) in the test on KM12. Also, the GI50 was 20 µM (inactive) in the test on SF-295; 18.5 µM (inactive) with ACHN; 17.9 µM (inactive) with SN12C; 24 µM (inactive) in the test with HOP-62; 19.8 µM (inactive) in the test with SK-MEL-28.
For the compound `CC1CC2C3CCC4=CC(=O)C=CC4(C)C3(F)C(O)CC2(C)C1(O)C(=O)CO.Cc1nnc(NS(=O)(=O)c2ccc(/N=N/c3cc(/N=N/c4ccc(S(=O)(=O)Nc5nnc(C)s5)cc4)c4c(NC(=O)C(Cl)Cl)cccc4c3OC(=O)C(Cl)Cl)cc2)s1`, the GI50 is 21.2 µM (inactive) in the test on SK-MEL-2; 21.2 µM (inactive) with RXF 393; 30.1 µM (inactive) in the test on A498; 21.6 µM (inactive) with NCI-H522; 11.6 µM (inactive) in the test with A549; 8.85 µM (inactive) in the test on HT-29. The GI50 is 11.6 µM (inactive) in the test on OVCAR-8; 35.5 µM in the test on HCT-15; 5.53 µM (inactive) with MOLT-4; 24.5 µM (inactive) with IGROV-1; 23.6 µM (inactive) with KM12; 42.3 µM (inactive) in the test with SF-295. In addition, the GI50 with SN12C was 3.3 µM (inactive); with HOP-62, 88.5 µM (inactive); in the test with SK-MEL-28 it was 20.8 µM (inactive).
For `O=C(O)[C@H](NS(=O)(=O)c1ccc2ccccc2c1)c1ccccc1`, the GI50 in the test on SK-MEL-2 was > 100 µM (inactive); in the test with RXF 393, 20.6 µM (inactive); in the test with A498, > 100 µM (inactive); with NCI-H522, > 100 µM (inactive); in the test with HT-29, > 100 µM (inactive); with HCT-15, above 100 µM. In addition, the GI50 in the test with MOLT-4, with IGROV-1, with SK-OV-3, with ACHN, in the test with SN12C and in the test with SK-MEL-28 was > 100 µM (inactive) throughout.
With `Cc1ccc2nc(NC(=O)C(=O)C(C#N)c3nc4ccccc4s3)sc2c1` (stereo not given), the GI50 is 32.4 µM (inactive) with SK-MEL-2; 31.5 µM (inactive) in the test on RXF 393; 19.5 µM (inactive) in the test on A498; 32.1 µM (inactive) with NCI-H522; 26.8 µM (inactive) with HT-29; 30.4 µM (inactive) in the test on OVCAR-8. Further, the 50% growth inhibitory concentration (GI50) in the test with HCT-15 is 32 µM; with MOLT-4, 20.4 µM (inactive); in the test with IGROV-1, 17.8 µM (inactive); in the test on SK-OV-3 it was 55.8 µM (inactive); in the test on KM12, 47.2 µM (inactive); in the test with SF-295 it was 37.2 µM (inactive). The GI50 was 42.3 µM (inactive) in the test on ACHN, 54 µM (inactive) in the test on SN12C, 14.5 µM (inactive) in the test with HOP-62 and 51.8 µM (inactive) in the test on SK-MEL-28.
Take `CC1(C)Oc2ccccc2N2O[C@@H]3C(=O)N(c4ccccc4)C(=O)[C@@H]3C21c1ccccc1` (stereo not given in full): the GI50 is 23.1 µM (inactive) in the test with SK-MEL-2; 23.7 µM (inactive) in the test on RXF 393; 20.8 µM (inactive) in the test on A498; 28.7 µM (inactive) in the test on NCI-H522; 20.1 µM (inactive) with A549; 29 µM (inactive) in the test on HT-29. For the same compound, the GI50 was > 10 µM (inactive) in the test on OVCAR-8; 27.1 µM (inactive) in the test with MOLT-4; 47.5 µM (inactive) in the test on IGROV-1; 22.1 µM (inactive) in the test on SK-OV-3; 30.6 µM (inactive) in the test on KM12; 15.7 µM (inactive) in the test with SF-295. The results for the GI50 in the test with HOP-62 and with SK-MEL-28 were 16.8 µM (inactive) and 29.2 µM (inactive), respectively.

The record behind these values is ChEMBL document CHEMBL1201862, “PubChem BioAssay data set” (2004).
